Measurements from US10947188B2, “Small molecule ferroptosis inducers” (THE TRUSTEES OF COLUMBIA UNIVERSITY IN THE CITY OF NEW YORK, priority 2016, dated 2021).
Where two headings read alike, the source gives them in different places.

Legend:
[1] = test system: HT-1080; experiment: Modulatory profiling: Alamar Blue viability, lethal compound cotreated with death modulator (EC50, AUC); assay type: cell-based; set-up: AUC, modulator HT.3MA / AUC, modulator HT.ALLN / AUC HT.ATA / AUC HT.ActD / AUC HT.BHA / AUC HT.BHT / AUC HT.BocD / AUC HT.CHX / AUC HT.Co2+ / AUC HT.DPQ / AUC HT.EGTA / AUC HT.Lmim / AUC HT.NAD+ / AUC HT.Nec-1 / AUC HT.SP600125 / AUC HT.TLCK / AUC HT.U0126: unit not given beside the values; settings: for AUC HT.ATA: HT-1080, modulator ATA; for AUC HT.ActD: HT-1080, modulator ActD; for AUC HT.BHA: HT-1080, modulator BHA; for AUC HT.BHT: HT-1080, modulator BHT; for AUC HT.BocD: HT-1080, modulator BocD; for AUC HT.CHX: HT-1080, modulator CHX; for AUC HT.Co2+: HT-1080, modulator Co2+; for AUC HT.CspA: HT-1080, modulator CspA; for AUC HT.DPQ: HT-1080, modulator DPQ; for AUC HT.Gd3+: HT-1080, modulator Gd3+; for AUC HT.LNAME: HT-1080, modulator LNAME; for AUC HT.Lmim: HT-1080, modulator Lmim; for AUC HT.NAD+: HT-1080, modulator NAD+; for AUC HT.NMMA: HT-1080, modulator NMMA; for HT.atoc (AUC) / HT.bCarotene (AUC) / HT.deferox (AUC) / HT.digoxin (AUC) / HT.trolox (AUC) / HT.zVAD (AUC): HT-1080; for HT.atoc (AUC): modulator atoc; for HT.bCarotene (AUC): modulator bCarotene; for HT.deferox (AUC): modulator deferox; for HT.digoxin (AUC): modulator digoxin; for HT.trolox (AUC): modulator trolox; for HT.zVAD (AUC): modulator zVAD; for AUC, modulator HT.3MA / AUC, modulator HT.ALLN: HT-1080 cells, modulatory profile value (AUC); for AUC, modulator HT.3MA: lethal compound cotreated with modulator 3MA; for AUC, modulator HT.ALLN: lethal compound cotreated with modulator ALLN; for AUC HT.Nec-1: HT-1080, modulator Nec-1; for AUC HT.Pepstatin: HT-1080, modulator Pepstatin; for AUC HT.SP600125: HT-1080, modulator SP600125; for AUC HT.TLCK: HT-1080, modulator TLCK; for AUC HT.U0126: HT-1080, modulator U0126; for AUC HT.BHA: reference of the scale not given here; for AUC HT.EGTA: reference of the scale not given here
[2] = test system: BJeLR; experiment: as above; assay type: cell-based, human; set-up: AUC, modulator BJ.Gd3+ / AUC, modulator BJ.LNAME / AUC, modulator BJ.Lmin / AUC, modulator BJ.3MA / AUC, modulator BJ.ALLN / AUC, modulator BJ.Boc D / AUC, modulator BJ.CHX / AUC, modulator BJ.Co2+ / AUC, modulator BJ.Nec-1 / AUC, modulator BJ.Pepstatin / AUC, modulator BJ.TLCK / AUC, modulator BJ.atoc / AUC, modulator BJ.trolox / AUC, modulator BJ.zVAD: unit not given beside the values; settings: BJeLR cells, modulatory profile value (AUC); for AUC, modulator BJ.3MA: lethal compound cotreated with modulator 3MA; for AUC, modulator BJ.ALLN: lethal compound cotreated with modulator ALLN; for AUC, modulator BJ.Boc D: lethal compound cotreated with modulator Boc D; for AUC, modulator BJ.CHX: lethal compound cotreated with modulator CHX; for AUC, modulator BJ.Co2+: lethal compound cotreated with modulator Co2+; for AUC, modulator BJ.DPQ: lethal compound cotreated with modulator DPQ; for AUC, modulator BJ.Gd3+: lethal compound cotreated with modulator Gd3+; for AUC, modulator BJ.LNAME: lethal compound cotreated with modulator LNAME; for AUC, modulator BJ.Lmin/NAD+: lethal compound cotreated with modulator Lmin/NAD+; for AUC, modulator BJ.Lmin: lethal compound cotreated with modulator Lmin; for AUC, modulator BJ.NAD+: lethal compound cotreated with modulator NAD+; for AUC, modulator BJ.NMMA: lethal compound cotreated with modulator NMMA; for AUC, modulator BJ.Nec-1: lethal compound cotreated with modulator Nec-1; for AUC, modulator BJ.Pepstatin: lethal compound cotreated with modulator Pepstatin; for AUC, modulator BJ.TLCK: lethal compound cotreated with modulator TLCK; for AUC, modulator BJ.atoc: lethal compound cotreated with modulator atoc; for AUC, modulator BJ.trolox: lethal compound cotreated with modulator trolox; for AUC, modulator BJ.zVAD: lethal compound cotreated with modulator zVAD; for AUC, modulator BJ.3MA: reference of the scale not given here; for AUC, modulator BJ.ALLN: reference of the scale not given here; for AUC, modulator BJ.Boc D: reference of the scale not given here; for AUC, modulator BJ.CHX: reference of the scale not given here; for AUC, modulator BJ.Co2+: reference of the scale not given here; for AUC, modulator BJ.DPQ: reference of the scale not given here; for AUC, modulator BJ.Gd3+: reference of the scale not given here; for AUC, modulator BJ.LNAME: reference of the scale not given here; for AUC, modulator BJ.NAD+: reference of the scale not given here; for AUC, modulator BJ.NMMA: reference of the scale not given here; for AUC, modulator BJ.Nec-1: reference of the scale not given here; for AUC, modulator BJ.Pepstatin: reference of the scale not given here; for AUC, modulator BJ.TLCK: reference of the scale not given here

COc1ccc(-n2nnnc2S(=O)(=O)CC(=O)N2CCCCC2)cc1 [CIL48]
AUC HT.ATA [1]: 0.04684 | AUC HT.ActD [1]: 0.01673 | AUC HT.BHA [1]: −0.06966 | AUC HT.BHT [1]: −0.1547 | AUC HT.BocD [1]: −0.03823 | AUC HT.CHX [1]: 0.0148 | AUC HT.Co2+ [1]: 0.0307 | AUC HT.CspA [1]: 0.002689 | AUC HT.DPQ [1]: −0.0003728 | AUC HT.EGTA ([1]; HT-1080, modulator EGTA): 0.01715 | AUC HT.Gd3+ [1]: −0.003556 | AUC HT.LNAME [1]: −0.04087 | AUC HT.Lmim [1]: −0.01757 | AUC HT.NAD+ [1]: −0.05465 | AUC HT.NMMA [1]: −0.01902 | HT.atoc (AUC) [1]: 0.09021 | HT.bCarotene (AUC) [1]: −0.00845 | HT.deferox (AUC) [1]: 0.1268 | HT.digoxin (AUC) [1]: −0.01513 | HT.trolox (AUC) [1]: −0.02612 | HT.zVAD (AUC) [1]: −0.005053 | AUC, modulator HT.3MA [1]: 0.0854 | AUC, modulator HT.ALLN [1]: 0.1611 | AUC, modulator BJ.3MA [2]: 0.09789 | AUC, modulator BJ.ALLN [2]: −0.1008 | AUC, modulator BJ.Boc D [2]: −0.02225 | AUC, modulator BJ.CHX [2]: 0.1619 | AUC, modulator BJ.Co2+ [2]: 0.05392 | AUC, modulator BJ.DPQ [2]: 0.01112 | AUC, modulator BJ.Gd3+ [2]: −0.004307 | AUC, modulator BJ.LNAME [2]: −0.01039 | AUC, modulator BJ.Lmin/NAD+ [2]: 0.06326 | AUC, modulator BJ.Lmin [2]: −0.02664 | AUC, modulator BJ.NAD+ [2]: −0.04246 | AUC, modulator BJ.NMMA [2]: 0.01412 | AUC, modulator BJ.Nec-1 [2]: −0.04434 | AUC, modulator BJ.Pepstatin [2]: −0.01271 | AUC, modulator BJ.TLCK [2]: −0.01339 | AUC, modulator BJ.atoc [2]: 0.01164 | AUC, modulator BJ.trolox [2]: −0.03407 | AUC, modulator BJ.zVAD [2]: −0.01807

CC1CC(C)(C)Nc2ccc(OC(=O)c3ccco3)cc21 (stereo not shown) [CIL4]
AUC HT.ATA [1]: 0.02806 | AUC HT.ActD [1]: −0.001463 | AUC HT.BHA [1]: −0.00931 | AUC HT.BHT [1]: −0.02212 | AUC HT.BocD [1]: 0.1272 | AUC HT.CHX [1]: 0.1096 | AUC HT.Co2+ [1]: −0.144 | AUC HT.CspA [1]: −0.04696 | AUC HT.DPQ [1]: 0.007359 | AUC HT.EGTA ([1]; HT-1080, modulator EGTA): 0.01533 | AUC HT.Gd3+ [1]: −0.009953 | AUC HT.LNAME [1]: 0.01005 | AUC HT.Lmim [1]: −0.01928 | AUC HT.NAD+ [1]: −0.01381 | AUC HT.NMMA [1]: −0.007501 | AUC HT.Nec-1 [1]: 0.002499 | AUC HT.Pepstatin [1]: 0.00928 | AUC HT.SP600125 [1]: −0.006297 | AUC HT.TLCK [1]: 0.0172 | AUC HT.U0126 [1]: 0.0005624 | HT.atoc (AUC) [1]: 0.02362 | HT.bCarotene (AUC) [1]: 0.001026 | HT.deferox (AUC) [1]: −3.785E−05 | HT.digoxin (AUC) [1]: −0.02389 | HT.trolox (AUC) [1]: −0.0201 | HT.zVAD (AUC) [1]: 0.0146 | AUC, modulator HT.3MA [1]: 0.02219 | AUC, modulator HT.ALLN [1]: 0.02482 | AUC, modulator BJ.3MA [2]: 0.08316 | AUC, modulator BJ.ALLN [2]: −0.003083 | AUC, modulator BJ.Boc D [2]: −0.01828 | AUC, modulator BJ.CHX [2]: −0.009993 | AUC, modulator BJ.Co2+ [2]: −0.1747 | AUC, modulator BJ.DPQ [2]: −0.003969 | AUC, modulator BJ.Gd3+ [2]: 0.05533 | AUC, modulator BJ.LNAME [2]: −0.01288 | AUC, modulator BJ.Lmin/NAD+ [2]: 0.08674 | AUC, modulator BJ.Lmin [2]: −0.002867 | AUC, modulator BJ.NAD+ [2]: 0.02731 | AUC, modulator BJ.NMMA [2]: −0.01566 | AUC, modulator BJ.Nec-1 [2]: 0.1015 | AUC, modulator BJ.Pepstatin [2]: 0.08231 | AUC, modulator BJ.TLCK [2]: 0.06929 | AUC, modulator BJ.atoc [2]: 0.004307 | AUC, modulator BJ.trolox [2]: 0.008406 | AUC, modulator BJ.zVAD [2]: 0.01242

Nc1ccccc1NC(=O)c1ccc(CNC(=O)OCc2cccnc2)cc1 [MS275]
AUC HT.EGTA [1]: −0.005811 | AUC HT.ATA [1]: 0.0212 | AUC HT.ActD [1]: −0.1982 | AUC HT.BHA [1]: −0.04868 | AUC HT.BHT [1]: −0.1794 | AUC HT.BocD [1]: 0.02448 | AUC HT.CHX [1]: −0.1189 | AUC HT.Co2+ [1]: −0.1027 | AUC HT.CspA [1]: −0.1886 | AUC HT.DPQ [1]: −0.01058 | AUC HT.Gd3+ [1]: −0.01027 | AUC HT.LNAME [1]: 0.004204 | AUC HT.Lmim [1]: −0.09728 | AUC HT.NAD+ [1]: 0.0008794 | AUC HT.NMMA [1]: −0.00333 | AUC HT.Nec-1 [1]: −0.05557 | AUC HT.Pepstatin [1]: −0.01654 | AUC HT.SP600125 [1]: −0.09903 | AUC HT.TLCK [1]: −0.02404 | AUC HT.U0126 [1]: −0.01884 | HT.atoc (AUC) [1]: −0.01016 | HT.bCarotene (AUC) [1]: −0.03005 | HT.deferox (AUC) [1]: −0.1653 | HT.digoxin (AUC) [1]: −0.1793 | HT.trolox (AUC) [1]: −0.02599 | HT.zVAD (AUC) [1]: 0.0222 | AUC, modulator HT.3MA [1]: −0.09204 | AUC, modulator HT.ALLN [1]: −0.1325 | AUC, modulator BJ.3MA [2]: −0.02606 | AUC, modulator BJ.ALLN [2]: −0.03932 | AUC, modulator BJ.Boc D [2]: 0.08944 | AUC, modulator BJ.CHX [2]: 0.2266 | AUC, modulator BJ.Co2+ [2]: 0.2326 | AUC, modulator BJ.DPQ [2]: −0.009656 | AUC, modulator BJ.Gd3+ [2]: 0.023 | AUC, modulator BJ.LNAME [2]: 0.02321 | AUC, modulator BJ.Lmin/NAD+ [2]: 0.1569 | AUC, modulator BJ.Lmin [2]: −0.001183 | AUC, modulator BJ.NAD+ [2]: 0.1269 | AUC, modulator BJ.NMMA [2]: −0.003779 | AUC, modulator BJ.Nec-1 [2]: −0.01329 | AUC, modulator BJ.Pepstatin [2]: −0.01824 | AUC, modulator BJ.TLCK [2]: 0.08474 | AUC, modulator BJ.atoc [2]: −0.008452 | AUC, modulator BJ.trolox [2]: −0.001137 | AUC, modulator BJ.zVAD [2]: 0.1415
